Results taken from article PMC6428052 (Journal of medicinal chemistry, 2018).

Assays:
hP2Y14R = target: T1, hP2Y14R (Homo sapiens, UniProt Q15391); type: binding; conditions: for fold less potent than 7 in P2Y14R binding: primary amino sulfonamides with two and four methylenes vs three
T1 sequence (Q15391 1-338): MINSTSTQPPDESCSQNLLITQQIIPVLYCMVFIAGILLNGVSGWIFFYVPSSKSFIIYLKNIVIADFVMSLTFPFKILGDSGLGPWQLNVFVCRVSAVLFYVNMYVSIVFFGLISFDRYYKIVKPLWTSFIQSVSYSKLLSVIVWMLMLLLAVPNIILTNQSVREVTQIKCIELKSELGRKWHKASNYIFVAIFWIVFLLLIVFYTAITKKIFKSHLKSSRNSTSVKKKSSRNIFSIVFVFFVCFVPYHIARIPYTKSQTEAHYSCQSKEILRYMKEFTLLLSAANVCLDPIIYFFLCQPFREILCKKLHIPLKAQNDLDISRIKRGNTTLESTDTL

CACO-2 cell = CACO-2 cell permeability; conditions: CACO-2 cells
[1] = Stability in simulated gastric and intestinal fluids; conditions: after 240 min
Plasma stability = conditions: at 120 min; plasma of three species: human, rat and mouse
[2] = In vivo pharmacokinetics in rat; conditions: male Sprague Dawley rat, oral administration 1–10 mg/kg
[3] = test system: 45 receptors, transporters and ion channels; experiment: PDSP comprehensive off-target screen; type: binding
H3 = H3 (Homo sapiens, UniProt Q9Y5N1); experiment: PDSP off-target binding; conditions: read-out: Ki, H3
Sequence of H3 (Q9Y5N1 whole entry): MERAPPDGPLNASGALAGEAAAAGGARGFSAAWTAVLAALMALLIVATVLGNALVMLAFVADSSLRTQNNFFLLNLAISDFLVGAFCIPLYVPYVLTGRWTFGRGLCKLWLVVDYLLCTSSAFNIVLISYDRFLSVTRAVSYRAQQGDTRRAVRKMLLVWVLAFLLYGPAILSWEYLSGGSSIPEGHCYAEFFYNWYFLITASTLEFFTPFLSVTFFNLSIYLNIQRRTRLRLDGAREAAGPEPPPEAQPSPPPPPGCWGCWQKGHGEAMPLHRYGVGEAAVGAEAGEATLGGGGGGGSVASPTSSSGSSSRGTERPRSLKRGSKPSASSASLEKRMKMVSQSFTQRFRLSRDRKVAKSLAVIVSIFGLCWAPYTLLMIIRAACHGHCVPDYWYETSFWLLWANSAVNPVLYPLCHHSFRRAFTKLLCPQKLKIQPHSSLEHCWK

5HT2B = 5HT2B (Homo sapiens, UniProt P41595); experiment: PDSP off-target binding; conditions: read-out: Ki, 5HT2B
Sequence of 5HT2B (P41595 whole entry, species assumed): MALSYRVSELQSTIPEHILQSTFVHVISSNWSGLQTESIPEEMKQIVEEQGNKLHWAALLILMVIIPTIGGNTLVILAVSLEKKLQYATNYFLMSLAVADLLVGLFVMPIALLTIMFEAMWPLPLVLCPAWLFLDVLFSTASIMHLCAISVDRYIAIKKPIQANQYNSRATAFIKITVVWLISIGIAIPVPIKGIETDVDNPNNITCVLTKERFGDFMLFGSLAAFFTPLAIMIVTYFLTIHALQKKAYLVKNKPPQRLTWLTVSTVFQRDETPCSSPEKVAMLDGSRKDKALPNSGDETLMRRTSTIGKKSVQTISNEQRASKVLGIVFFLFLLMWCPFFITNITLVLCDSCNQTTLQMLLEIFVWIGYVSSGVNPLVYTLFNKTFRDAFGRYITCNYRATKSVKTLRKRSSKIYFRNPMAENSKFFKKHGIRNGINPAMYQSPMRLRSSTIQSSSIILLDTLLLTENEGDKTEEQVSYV

[4] = carboxylate replaced by tetrazole

FC(F)(F)c1ccc(-c2cn(-c3cc(-c4ccc(C5CCNCC5)cc4)cc(-c4nnn[nH]4)c3)nn2)cc1 [compound 35, 4-(3'-(1H-Tetrazol-5-yl)-5'-(4-(4-(trifluoromethyl)phenyl)-1H-1,2,3-triazol-1-yl)-[1,1'-biphenyl]-4-yl)piperidine]
fold reduction of affinity relative to 2a (hP2Y14R; [4]): 30 fold

NC(=O)c1ccc(-c2cc(-c3nnn[nH]3)cc(-n3cc(-c4ccc(C(F)(F)F)cc4)nn3)c2)cc1 [compound 36b, 3'-(1H-Tetrazol-5-yl)-5'-(4-(4-(trifluoromethyl)phenyl)-1H-1,2,3-triazol-1-yl)-[1,1'-biphenyl]-4-carboxamide]
fold less potent than carboxamide 30 (hP2Y14R): 9 fold

O=C(O)c1cc(O)cc(-n2cc(-c3ccc(C(F)(F)F)cc3)nn2)c1 [compound 37a]
fold less potent than carboxamide 30 (hP2Y14R): 60 fold

O=C(O)c1cc(-c2ccc(C(=O)N3CCNCC3)s2)cc(-n2cc(-c3ccc(C(F)(F)F)cc3)nn2)c1 [compound 22, 3-(5-(Piperazine-1-carbonyl)thiophen-2-yl)-5-(4-(4-(trifluoromethyl)phenyl)-1H-1,2,3-triazol-1-yl)benzoic acid]
fold less potent than thienyl sulfonamide 12 (hP2Y14R; cyclic amines): 2 fold

NCCCNS(=O)(=O)c1ccc(-c2cc(C(=O)O)cc(-n3cc(-c4ccc(C(F)(F)F)cc4)nn3)c2)s1 [compound 7, 3-(5-(N-(3-Ammopropyl)sulfamoyl)thiophen-2-yl)-5-(4-(4-(trifluoromethyl)phenyl)-1H-1,2,3-triazol-1-yl)benzoic acid]
fold more potent than its Boc derivative 6 (hP2Y14R): 12 fold

CCN(CC)CC.NS(=O)(=O)c1ccc(-c2cc(C(=O)O)cc(-n3cc(-c4ccc(C(F)(F)F)cc4)nn3)c2)cc1 [compound 16, 4'-Sulfamoyl-5-(4-(4-(trifluoromethyl)phenyl)-1H-1,2,3-triazol-1-yl)-[1,1'-biphenyl]-3-carboxylic acid]
fold more potent than thienyl sulfonamide 13 (hP2Y14R): 10 fold

CCN(CC)CC.NC(=O)c1ccc(-c2cc(C(=O)O)cc(-n3cc(-c4ccc(C(F)(F)F)cc4)nn3)c2)cc1 [compound 30, 4'-Carbamoyl-5-(4-(4-(trifluoromethyl)phenyl)-lH-l,2,3-triazol-l-yl)-[l,l'-biphenyl]-3-carboxylic acid]
Papp, apical to basal (CACO-2 cell): 0.0 X 10^−6 cm/sec
remaining in simulated gastric fluid [1]: 100 % remaining
remaining in simulated intestinal fluid [1]: 100 % remaining
remaining in plasma (Plasma stability): 94 – 100 % remaining
oral bioavailability [2]: lack of bioavailability
Off-target interactions in the comprehensive PDSP screen [3]: did not bind appreciably to any other sites

NCCCCNS(=O)(=O)c1ccc(-c2cc(C(=O)O)cc(-n3cc(-c4ccc(C(F)(F)F)cc4)nn3)c2)s1 [compound 9, 3-(5-(N-(4-Ammobutyl)sulfamoyl)thiophen-2-yl)-5-(4-(4-(trifluoromethyl)phenyl)-1H-1,2,3-triazol-1-yl)benzoic acid]
fold less potent than 7 in P2Y14R binding (hP2Y14R): 3 fold

O=C(O)c1cc(O)c2ccc(-c3ccc(C(F)(F)F)cc3)cc2c1 [37d]
Off-target interactions in the comprehensive PDSP screen [3]: bound only to NET

NCCCNC(=O)c1ccc(-c2cc(-c3nnn[nH]3)cc(-n3cc(-c4ccc(C(F)(F)F)cc4)nn3)c2)s1 [compound 36a, 5-(3-(1#-Tetrazol-5-yl)-5-(4-(4-(trifluoromethyl)phenyl)-1H-1,2,3-triazol-1-yl)phenyl)-N-(3-aminopropyl)thiophene-2-carboxamide]
fold reduction of affinity relative to 20 (hP2Y14R): 7 fold

NCCCNC(=O)c1ccc(-c2cc(C(=O)O)cc(-n3cc(-c4ccc(C(F)(F)F)cc4)nn3)c2)s1 [compound 20, 3-(5-((3-Aminopropyl)carbamoyl)thiophen-2-yl)-5-(4-(4-(trifluoromethyl)phenyl)-1H-1,2,3-triazol-1-yl)benzoic acid]
Off-target interactions in the comprehensive PDSP screen [3]: did not display extensive off-target interactions with biogenic amine receptors

NCCCCCCn1cc(CCCCN2CCC(c3ccc(-c4cc(C(=O)O)cc5cc(-c6ccc(C(F)(F)F)cc6)ccc45)cc3)CC2)nn1 [compound 3d, 4-(4-(1-(4-(1-(6-Ammohexyl)-1H-1,2,3-triazol-4-yl)butyl)piperidm-4-yl)phenyl)-7-(4-(trifluoromethyl)phenyl)-2-naphthoic acid]
Off-target interactions in the comprehensive PDSP screen [3]: displayed extensive off-target interactions with biogenic amine receptors

CC(C)(C)NC(=O)c1ccc(-c2cc(-c3nnn[nH]3)cc(-n3cc(-c4ccc(C(F)(F)F)cc4)nn3)c2)cc1 [compound 36c, N-(terf-Butyl)-3'-(1H-tetrazol-5-yl)-5'-(4-(4-(trifluoromethyl)phenyl)-1H-1,2,3-triazol-1-yl)-[1,1'-biphenyl]-4-carboxamide]
fold reduction of affinity relative to 34 (hP2Y14R; [4]): 3 fold

NCCNS(=O)(=O)c1ccc(-c2cc(C(=O)O)cc(-n3cc(-c4ccc(C(F)(F)F)cc4)nn3)c2)s1 [compound 5, 3-(5-(N-(2-Aminoethyl)sulfamoyl)thiophen-2-yl)-5-(4-(4-(trifluoromethyl)phenyl)-1H-1,2,3-triazol-1-yl)benzoic acid]
fold less potent than 7 in P2Y14R binding (hP2Y14R): 3 fold

O=C(O)c1cc(-c2ccc(S(=O)(=O)NCCCCO)s2)cc(-n2cc(-c3ccc(C(F)(F)F)cc3)nn2)c1 [compound 10, 3-(5-(N-(4-Hydroxybutyl)sulfamoyl)thiophen-2-yl)-5-(4-(4-(trifluoromethyl)phenyl)-1H-1,2,3-triazol-1-yl)benzoic acid]
fold less potent than primary aminobutyl congener 9 (hP2Y14R): 4 fold

CC(C)(C)OC(=O)NCCCCCCn1cc(CCCCN2CCC(c3ccc(-c4cc(C(=O)O)cc5cc(-c6ccc(C(F)(F)F)cc6)ccc45)cc3)CC2)nn1 [compound 3c, 4-(4-(1-(4-(1-(6-((tert-Butoxycarbonyl)amino)hexyl)-1H-1,2,3-triazol-4-yl)butyl)piperidm-4-yl)phenyl)-7-(4-(trifluoromethyl)phenyl)-2-naphthoic acid]
Ki (H3): 2.77 µM
Ki (5HT2B): 2.78 µM

CC(C)(C)OC(=O)N1CCN(Cc2ccc(-c3cc(C(=O)O)cc(-n4cc(-c5ccc(C(F)(F)F)cc5)nn4)c3)s2)CC1 [compound 17, 3-(5-((4-(tert-Butoxycarbonyl)piperazin-1-yl)methyl)thiophen-2-yl)-5-(4-(4-(trifluoromethyl)phenyl)-1H-1,2,3-triazol-1-yl)benzoic acid]
fold weaker than methylpiperazine 18 (hP2Y14R; Boc derivative vs free amine): 34 fold

CCN(CC)CC.NC(=O)c1ccc(-c2cc(C(=O)O)cc(-n3cc(-c4ccc(C(F)(F)F)cc4)nn3)c2)o1 [compound 24, 3-(5-Carbamoylfuran-2-yl)-5-(4-(4-(trifluoromethyl)phenyl)-1H-1,2,3-triazol-1-yl)benzoic acid]
fold less potent than carboxamide 30 (hP2Y14R): 10 fold
